In ChEMBL document CHEMBL1177663, “Synthesis and anti-HIV activity of 2-naphthyl substituted DAPY analogues as non-nucleoside reverse transcriptase inhibitors” (Bioorg Med Chem, 2010):

Columns and labels:
[1] = test system: Human immunodeficiency virus 1; test: Antiviral activity against wild type HIV1 3B infected in human MT4 cells assessed as inhibition of virus-induced cytopathic effect after 4 days by MTT assay; assay type: functional, organism-based; settings: Human immunodeficiency virus 1, 3B, MT4, 96 h
[2] = test system: Human immunodeficiency virus 1; test: Antiviral activity against HIV1 bearing reverse transcriptase K103N and Y181C double mutation infected in human MT4 cells assessed as inhibition of virus-induced cytopathic effect after 4 days by MTT assay; assay type: functional, organism-based; settings: Human immunodeficiency virus 1, MT4, 96 h
[3] = Selectivity index, ratio of CC50 for human MT4 cells to EC50 for wild type HIV1 3B; assay type: toxicity, cell-based; settings: read-out: Ratio CC50/EC50
[4] = Cytotoxicity against human MT4 cells after 4 days by MTT assay; assay type: cell-based
[5] = target: Human immunodeficiency virus type 1 reverse transcriptase (Human immunodeficiency virus 1, UniProt Q72547); test: Inhibition of HIV1 reverse transcriptase

Structure (SMILES): Cc1cc(Oc2ccc3cc(C#N)ccc3c2Br)nc(Nc2ccc(C#N)cc2)n1
- EC50 [1]: 7 nM
- EC50 [2]: 220 nM
- selectivity ratio [3]: > 40100
- CC50 at 96 h [4]: > 274000 nM

Structure (SMILES): Cc1cc(Oc2ccc3cc(C#N)ccc3c2)nc(Nc2ccc(C#N)cc2)n1
- EC50 [1]: 3 nM
- EC50 [2]: 332000 nM
- selectivity ratio [3]: > 96500
- CC50 at 96 h [4]: > 332000 nM

Structure (SMILES): N#Cc1ccc(Nc2nccc(Oc3ccc4cc(C#N)ccc4c3)n2)cc1
- IC50 [5]: 8720 nM
- EC50 [1]: 3 nM
- EC50 [2]: 6300 nM
- selectivity ratio [3]: 20500
- CC50 at 96 h [4]: > 68800 nM

Structure (SMILES): N#Cc1ccc(Nc2nccc(Oc3ccc4cc(C#N)ccc4c3Br)n2)cc1
- IC50 [5]: 3010 nM
- EC50 [1]: 2 nM
- EC50 [2]: 240 nM
- selectivity ratio [3]: 181000
- CC50 at 96 h [4]: 283000 nM

Structure (SMILES): Cc1cnc(Nc2ccc(C#N)cc2)nc1Oc1ccc2cc(C#N)ccc2c1
- EC50 [1]: 7 nM
- EC50 [2]: 332000 nM
- selectivity ratio [3]: > 44900
- CC50 at 96 h [4]: > 332000 nM

Structure (SMILES): N#Cc1ccc(Nc2nccc(Oc3cc4ccc(C#N)cc4cc3Br)n2)cc1
- IC50 [5]: 1130 nM
- EC50 [1]: 1 nM
- EC50 [2]: > 56500 nM
- selectivity ratio [3]: 50400
- CC50 at 96 h [4]: > 56500 nM

Structure (SMILES): COc1c(Oc2ccnc(Nc3ccc(C#N)cc3)n2)ccc2cc(C#N)ccc12
- IC50 [5]: 2290 nM
- EC50 [1]: 2 nM
- EC50 [2]: 380 nM
- selectivity ratio [3]: ≥ 134000
- CC50 at 96 h [4]: > 211000 nM

Structure (SMILES): COc1cc2cc(C#N)ccc2cc1Oc1ccnc(Nc2ccc(C#N)cc2)n1
- IC50 [5]: 1320 nM
- EC50 [1]: 2 nM
- EC50 [2]: 319000 nM
- selectivity ratio [3]: > 158000
- CC50 at 96 h [4]: > 318000 nM

Structure (SMILES): COc1cc2cc(C#N)ccc2c(OC)c1Oc1ccnc(Nc2ccc(C#N)cc2)n1
- IC50 [5]: 94.5 nM
- EC50 [1]: 5 nM
- EC50 [2]: 160 nM
- selectivity ratio [3]: ≥ 25000
- CC50 at 96 h [4]: > 118000 nM

Structure (SMILES): N#Cc1ccc(Nc2nccc(Oc3ccc4cc(C#N)ccc4c3Cl)n2)cc1
- EC50 [1]: 6 nM
- EC50 [2]: 700 nM
- selectivity ratio [3]: 48000
- CC50 at 96 h [4]: 269000 nM

Structure (SMILES): COc1cc2cc(C#N)ccc2c(Cl)c1Oc1ccnc(Nc2ccc(C#N)cc2)n1
- EC50 [1]: 7 nM
- EC50 [2]: 150 nM
- selectivity ratio [3]: ≥ 25700
- CC50 at 96 h [4]: > 191000 nM

Structure (SMILES): Cc1cnc(Nc2ccc(C#N)cc2)nc1Oc1ccc2cc(C#N)ccc2c1Br
- EC50 [1]: 12 nM
- EC50 [2]: 830 nM
- selectivity ratio [3]: > 23800
- CC50 at 96 h [4]: > 274000 nM

Structure (SMILES): CC(C)Nc1cccnc1N1CCN(C(=O)c2cc3cc(NS(C)(=O)=O)ccc3[nH]2)CC1 [DELAVIRDINE]
- EC50 [2]: > 3620 nM
- CC50 at 96 h [4]: > 3620 nM

Structure (SMILES): O=C1Nc2ccc(Cl)cc2[C@@](C#CC2CC2)(C(F)(F)F)O1 [EFAVIRENZ]
- EC50 [2]: 560 nM
- CC50 at 96 h [4]: > 63400 nM

Structure (SMILES): Cc1ccnc2c1NC(=O)c1cccnc1N2C1CC1 [NEVIRAPINE]
- EC50 [1]: 75 nM
- EC50 [2]: > 15000 nM
- CC50 at 96 h [4]: > 15000 nM
